In brackets after ≈: the same amount, converted by molar mass. Where only a bound is given, the exact number is not on record here.

For the data set the following is noted: buffer; pH 7.4; 200.0 µM.
What is called solubility (kinetic) is solubility judged after dilution from a stock solution rather than from solid. `CS(=O)(=O)c1ccc(Cl)c(NC(=O)COC(=O)c2ccc(S(=O)(=O)N3CCCC3)cc2)c1` had a kinetic solubility of 10.5 µg/mL (≈ 21 µM).
The value for `COc1ccc2c(C)nc(Nc3nc(-c4ccccc4)cc(=O)[nH]3)nc2c1` was under 0.2 µg/mL.
The compound `COC(=O)C1=C(C)NC(=O)NC1c1ccc(-c2ccc(Cl)cc2)o1` (stereo not given) displayed a kinetic solubility of 4.8 µg/mL (≈ 13.8 µM).
Consider `O=C(CCNS(=O)(=O)c1ccc(F)c(Cl)c1)NCc1ccccc1F`, for which the solubility (kinetic) came out at 27.2 µg/mL (≈ 70 µM).
To `Cc1cc(OCC(=O)NC2CC2)c2c(C)c(C)c(=O)oc2c1` belongs 2.5 µg/mL (≈ 8.3 µM); to `Cc1cccc(C(C)C)c1NC(=O)c1c(-c2ccccc2)noc1C`, 0.6 µg/mL (≈ 1.79 µM).
To `CC(=O)Oc1cccc(N2C(=O)C3C4C=CC(CC4)C3C2=O)c1` (stereo not given) belongs 32.8 µg/mL (≈ 105 µM); to `CCOc1ccc(Nc2ccnc3cc(Cl)ccc23)cc1`, under 0.3 µg/mL.
To `CN(c1ccc(OCCOc2ccccc2Cl)cc1)S(=O)(=O)c1ccccc1` belongs 6.2 µg/mL (≈ 14.8 µM); to `Cc1ccc(NC(=O)COc2ccc(N(C)C(=O)C(C)(C)C)cc2)cc1S(=O)(=O)N1CCCCC1`, 6.7 µg/mL (≈ 13.4 µM); to `CC(=O)Nc1c2c(nn1-c1ccc(F)cc1)CSC2`, over 41.6 µg/mL.
Take `CN(c1c[nH]c(=O)[nH]c1=O)C1CCCCC1`: the kinetic solubility was over 33.5 µg/mL.
The value for `O=C(Cc1cccs1)NCc1ccc(Cl)cc1` was 23.5 µg/mL (≈ 88.4 µM); that for `CCCN1C(=O)CC(=O)N=C1SCC(=O)Nc1ccccc1F` was over 50.6 µg/mL.
The value for `CCOC(=O)c1cc(C#N)c(SCC(N)=O)[nH]c1=O` was over 42.2 µg/mL; that for `Cc1ccc(C2=NOC3(CC(=O)N(c4ccccc4)C3=O)C2)cc1` (stereo not given) was 45.2 µg/mL (≈ 141 µM); that for `Cc1ccccc1NC(=S)N1CCC(NC(=O)c2ccco2)CC1` was 47.1 µg/mL (≈ 137 µM).
`O=C(CN1C(=O)NC2(CCOc3ccccc32)C1=O)c1ccc(Cl)cc1` (stereo not given): the solubility (kinetic) came to 1.3 µg/mL (≈ 3.51 µM).
The value for `O=C(CCc1ccccc1)NC(=S)Nc1ccc2c(c1)C(=O)OC2` was under 0.4 µg/mL; that for `Cc1noc(C)c1C(=O)Nc1sccc1C(N)=O` was 7.7 µg/mL (≈ 29 µM).
To `Cc1cc(-c2ccccc2)nc(SC(C(=O)O)c2ccccc2)n1` (stereo not given) belongs 48.1 µg/mL (≈ 143 µM); to `O=C(NCCCc1ccccc1)N1CCOCC1`, over 37.2 µg/mL; to `CC(C)(C)c1ccc(CN2C(=O)c3ccccc3S2(=O)=O)cc1`, 1.2 µg/mL (≈ 3.64 µM).
As for `CNC(=O)Nc1cccc2cccnc12`, the kinetic solubility was over 30.2 µg/mL.
To `Cc1ccc(C(=O)N2CCN(Cc3ccc4c(c3)OCO4)CC2)c(Cl)c1` belongs 54.4 µg/mL (≈ 146 µM).
To `O=C(CS(=O)(=O)c1ccccc1)N1CCCCC1` belongs over 40.1 µg/mL; to `C=C(C)C1CC=C(CN2CCN(Cc3ccccc3)CC2)CC1` (stereo not given), 17.8 µg/mL (≈ 57.3 µM).
Consider `CC(C)c1cccc(OCCN2CCCC2)c1`, for which the kinetic solubility was 22.9 µg/mL (≈ 98.1 µM).
In turn, `CCOC(=O)Cn1c(=O)cc(C)c2ccccc21` showed a solubility (kinetic) of over 36.8 µg/mL.
The value for `COc1ccccc1Oc1nc(-c2cccnc2)nc2ccccc12` was 2.1 µg/mL (≈ 6.38 µM).
As to `Cc1cc(C)c(S(=O)(=O)Cc2ccccc2)c(OC(C)C)n1`, the solubility (kinetic) was 26 µg/mL (≈ 81.4 µM).
To `CC(=O)C1=C(O)C(=O)N(c2ccc(F)cc2)C1c1ccc(C)cc1` (stereo not given) belongs over 48.8 µg/mL; to `C(=C\c1nc(-c2ccncc2)no1)/c1ccccc1`, 3.4 µg/mL (≈ 13.6 µM).
For the compound `COc1cc(OC)cc(C(=O)O/N=C(\N)c2cccc(C)c2)c1`, the solubility (kinetic) is 6.2 µg/mL (≈ 19.7 µM).
To `CSC(=Nc1ccccc1)Nc1ccccc1` belongs 6.4 µg/mL (≈ 26.4 µM); to `COc1ccc(CNC(=O)CN2C(=O)NC3(CCCCCCC3)C2=O)cc1`, 23.4 µg/mL (≈ 62.7 µM); to `C=CCNC(=O)COc1ccccc1C#N`, over 32.4 µg/mL.
As to `Cc1ccc(N=C2NC(=O)/C(=C/c3cccnc3)S2)cc1C`, the solubility (kinetic) is under 0.2 µg/mL.
The value for `O=C1NC(c2cccc(Cl)c2)Oc2ccccc21` (stereo not given) was 1.2 µg/mL (≈ 4.62 µM); that for `COc1ccc2oc(C(=O)OCC(=O)Nc3ccc(C(=O)N(C)C)cc3)c(C)c2c1` was 58.7 µg/mL (≈ 143 µM).

The record behind these values is PubChem BioAssay AID1996.
